Test results reported in PMC12481576, “Barbituric Acid Derivatives as Covalent Inhibitors of Leishmania braziliensis Dihydroorotate Dehydrogenase” (Journal of Medicinal Chemistry, 2025).
Where “and” joins values, the source holds several entries; their conditions need not be identical. Identical values can stand only once. Like-named read-outs stand apart in the source and are kept apart here.

Legend:
LbDHODH = LbDHODH (Leishmania braziliensis, UniProt E9AI53); experiment: biochemical; conditions: for IC50: LbDHODH
Sequence of LbDHODH (E9AI53 entry or part of it): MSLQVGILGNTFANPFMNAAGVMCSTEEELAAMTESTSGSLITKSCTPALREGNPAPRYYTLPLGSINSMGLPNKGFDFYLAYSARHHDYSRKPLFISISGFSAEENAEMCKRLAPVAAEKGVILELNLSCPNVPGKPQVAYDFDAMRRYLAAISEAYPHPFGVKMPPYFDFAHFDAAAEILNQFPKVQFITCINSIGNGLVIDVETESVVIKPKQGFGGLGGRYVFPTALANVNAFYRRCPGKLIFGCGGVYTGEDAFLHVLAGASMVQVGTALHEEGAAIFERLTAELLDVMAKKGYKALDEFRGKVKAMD
In short: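 Covalent inactivation constant kinact/KI came from linear fitting of early kobs values against inhibitor concentration. Activity followed by A610 (DCIP, DHO substrate) every 3 s over 60 s in Tris pH 8.15/KCl/Triton X-100 buffer, in triplicate; single-point 100 μM screen run at 0 h and after 4-h preincubation.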

HsDHODH = target: T1, HsDHODH (Homo sapiens, UniProt Q02127); experiment: Selectivity assay: HsDHODH single-dose inhibition (DCIP reduction); type: biochemical
T1 construct: made in house
T1 sequence (Q02127 whole entry): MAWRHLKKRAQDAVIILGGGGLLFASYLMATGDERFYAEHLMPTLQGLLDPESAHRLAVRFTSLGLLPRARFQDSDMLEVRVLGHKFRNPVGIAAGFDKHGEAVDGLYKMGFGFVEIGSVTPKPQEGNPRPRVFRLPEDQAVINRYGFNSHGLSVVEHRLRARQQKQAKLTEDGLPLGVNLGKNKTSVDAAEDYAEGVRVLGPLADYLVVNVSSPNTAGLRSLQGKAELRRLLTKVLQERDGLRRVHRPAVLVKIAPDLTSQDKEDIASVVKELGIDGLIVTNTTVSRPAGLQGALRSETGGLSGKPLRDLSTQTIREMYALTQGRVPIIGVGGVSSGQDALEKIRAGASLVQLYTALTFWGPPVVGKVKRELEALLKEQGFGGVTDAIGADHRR
In short: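 Single-dose format, run in triplicate: His-purified HsDHODH (20 nM final) started by adding reaction buffer, absorbance at 610 nm (DCIP) recorded for 60 s at 3-s intervals. Initial rates converted to percent of no-compound control activity.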

[1] = Cell viability / cytotoxicity assay (PrestoBlue, 72 h); type: cell-based; conditions: human; THP-1 cell line, 72 h, max 200 μM; read-out: CC50
In short: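 Viability was measured with PrestoBlue fluorescence (560/590 nm, 2 h) after 72 h compound exposure at 37 °C. Test concentrations descended from 200 μM. The THP-1 monocytes had first been differentiated with 150 ng/mL phorbol myristate acetate for 48 h, then rested 24 h.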

in vitro [2] = experiment: in vitro
In short: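 Compounds at 10 μM final (5% DMSO) in PBS pH 7.4 in donor wells, PBS pH 7.4 acceptor, duplicate; incubated 6 h at room temperature. Donor, acceptor and initial donor (T0) concentrations quantified by LC-MS/MS.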

[3] = for Raw data: analyte peak area, T=0: 0 min; for Raw data: analyte peak area, T=0 / Raw data: analyte peak area, T=5 / Raw data: analyte peak area, T=10 / Raw data: analyte peak area, T=20 / Raw data: analyte peak area, T=30 / Raw data: analyte peak area, T=60: raw LC-MS area; for Raw data: analyte peak area, T=5: 5 min; for Raw data: analyte peak area, T=10: 10 min; for Raw data: analyte peak area, T=20: 20 min; for Raw data: analyte peak area, T=30: 30 min; for Raw data: analyte peak area, T=60: 60 min
in vitro [4] = conditions: microsomes; for microsomal CLint at 1 μM / remaining at 5 min, 1 μM: male, CD1, mouse; for remaining at 5 min, 1 μM / remaining at 10 min, 1 µM / remaining at 20 min, 1 µM / remaining at 0.5 h, 1 µM / remaining at 1 h, 1 µM: pH 7.4, % Remaining; for remaining at 5 min, 1 μM: T=5 min; for remaining at 10 min, 1 µM / remaining at 20 min, 1 µM / remaining at 0.5 h, 1 µM / remaining at 1 h, 1 µM: mouse; for remaining at 10 min, 1 µM: T=10 min; for remaining at 20 min, 1 µM: T=20 min; for remaining at 0.5 h, 1 µM: T=30 min, 30 min; for remaining at 1 h, 1 µM: T=60 min, 60 min
[5] = Mouse liver microsome stability in the absence of cofactors (NCF); conditions: 60 min, no cofactor (NCF); for Raw data: analyte peak area, T=60 NCF: mouse liver microsomes, raw LC-MS area; for remaining at 1 h, 1 µM: mouse, microsomes, pH 7.4, % Remaining, T=60 NCF
[6] = 0 h, pH 8.15, read-out: LbDHODH Activity±SD (%)
[7] = 4 h, pH 8.15, read-out: LbDHODH Activity±SD (%)
[8] = read-out: Single dose (0h) % activity
[9] = read-out: Single dose (4h) % activity
[10] = average of n=2, 10µM, PBS pH 7.4/7.4, 6h at room temperature
[11] = mouse liver microsomes, replicate 1 (left block)
[12] = mouse liver microsomes, replicate 2 (right block)
[13] = n=1, mouse liver microsomes, n=1
[14] = n=2, mouse liver microsomes, n=2

Structure (SMILES): O=C1NC(=O)C(=C/C=C/c2ccccc2)C(=O)N1 [2i, (E)-5-(3-Phenylallylidene)pyrimidine-2,4,6(1H,3H,5H)-trione]
- activity at 0.0976562 µM (LbDHODH; [6]): 80 ± 11%
- activity at 0.195312 µM (LbDHODH; [6]): 83 ± 14%
- activity at 0.390625 µM (LbDHODH; [6]): 71 ± 17%
- activity at 0.78125 µM (LbDHODH; [6]): 72 ± 12%
- activity at 1.5625 µM (LbDHODH; [6]): 17 ± 4%
- activity at 3.125 µM (LbDHODH; [6]): 11 ± 3%
- activity at 6.25 µM (LbDHODH; [6]): 12 ± 3%
- activity at 12.5 µM (LbDHODH; [6]): 4 ± 1%
- activity at 25 µM (LbDHODH; [6]): 7 ± 3%
- activity at 50 µM (LbDHODH; [6]): 4 ± 1%
- activity at 100 µM (LbDHODH; [6]): 6 ± 1%
- activity at 200 µM (LbDHODH; [6]): 1 ± 0.1%
- activity at 0.0976562 µM (LbDHODH; [7]): 94 ± 19%
- activity at 0.195312 µM (LbDHODH; [7]): 68 ± 11%
- activity at 0.390625 µM (LbDHODH; [7]): 51 ± 9%
- activity at 0.78125 µM (LbDHODH; [7]): 38 ± 9%
- activity at 3.125 µM (LbDHODH; [7]): 10 ± 3%
- activity at 12.5 µM (LbDHODH; [7]): 4 ± 1%
- activity at 50 µM (LbDHODH; [7]): 16 ± 0.5%
- activity at 200 µM (LbDHODH; [7]): 3 ± 0.4%
- IC50 (LbDHODH; IC50 0 h, without preincubation): 900 ± 300 nM
- IC50 (LbDHODH; IC50 4 h, 4-h preincubation): 500 ± 100 nM
- activity at 100 µM (LbDHODH; [8]): 1.1 ± 0.2%
- activity at 100 µM (LbDHODH; [9]): 3 ± 2%
- inhibition at 100 µM (LbDHODH; read-out: enzyme inhibition): 97%
- inhibition of HsDHODH in single-dose assays (HsDHODH; 100 μM, with or without 4-h incubation): no inhibition
- activity at 100 µM (HsDHODH; [8]): 93 ± 11%
- activity at 100 µM (HsDHODH; [9]): 91 ± 9%
- CC50 at 72 h [1]: 193000 ± 67000 nM
- recovery at 6 h, 10 µM (in vitro [2]; PAMPA, pH 7.4, % Recovery n=1, replicate n=1, 10µM, PBS pH 7.4/7.4, 6h at room temperature): 14.3%
- recovery at 6 h, 10 µM (in vitro [2]; PAMPA, pH 7.4, % Recovery n=2, replicate n=2, 10µM, PBS pH 7.4/7.4, 6h at room temperature): 15.8%
- recovery at 6 h, 10 µM (in vitro [2]; PAMPA, pH 7.4, Avg % Recovery, average of n=2, 10µM, PBS pH 7.4/7.4, 6h at room temperature): 15%
- Papp (in vitro [2]; PAMPA, pH 7.4, permeability, PBS pH 7.4, 10 μM, 6 h): 5.75 ×10⁻⁶ cm/s
- Avg Log Pe (cm/sec) (in vitro [2]; [10]): -5.2 cm/sec and -5.24 cm/sec
- Avg Pe (in vitro [2]; [10]): 5.75 ×10⁻⁶ cm/s
- LogPe (cm/sec) n1 (in vitro [2]; replicate n1, calculation section, 10µM, PBS pH 7.4/7.4, 6h): -5.25 cm/sec
- LogPe (cm/sec) n2 (in vitro [2]; replicate n2, calculation section, 10µM, PBS pH 7.4/7.4, 6h): -5.23 cm/sec
- Pe (nm/sec) n=1 (in vitro [2]; replicate n=1, 10µM (5% DMSO), PBS pH 7.4/7.4, 6h at room temperature, LC-MS/MS): 56.6 nm/s and 56.58 nm/s
- % Recovery n=1 (in vitro [2]; replicate n=1, 10µM, PBS pH 7.4/7.4, 6h at room temperature): 14.26%
- Pe (nm/sec) n=2 (in vitro [2]; replicate n=2, 10µM (5% DMSO), PBS pH 7.4/7.4, 6h at room temperature, LC-MS/MS): 58.4 nm/s and 58.42 nm/s
- % Recovery n=2 (in vitro [2]; replicate n=2, 10µM, PBS pH 7.4/7.4, 6h at room temperature): 15.77%
- Calculated T-half (min), Average ([3]; mouse liver microsomes (CD1 male), 0.4 mg/ml protein, test conc 1 µM, average of n=1 and n=2): 2.7 min
- Calculated T-half (min), n=1 ([3]; mouse liver microsomes (CD1 male), 0.4 mg/ml protein, test conc 1 µM, replicate n=1): 2.74 min and 2.7 min
- Calculated T-half (min), n=2 ([3]; mouse liver microsomes (CD1 male), 0.4 mg/ml protein, test conc 1 µM, replicate n=2): 2.73 min and 2.7 min
- Raw data: analyte peak area, T=0 [3, 11]: 4760
- Raw data: analyte peak area, T=0 [3, 12]: 4151
- Modified T-half (min), Average ([3]; mouse liver microsomes, 0.4 mg/ml, 1 µM, average, limited to T Half range 3.00 - […]): <3.0 min
- Remarks (mouse microsomal stability study) ([3]; mouse liver microsomes, 0.4 mg/ml, 1 µM, NCF = no cofactor control): Very fast metabolism; Low NCF
- Raw data: analyte peak area, T=5 [3, 11]: 1438
- Raw data: analyte peak area, T=5 [3, 12]: 1160
- Raw data: analyte peak area, T=10 [3, 11]: 0
- Raw data: analyte peak area, T=10 [3, 12]: 0
- Raw data: analyte peak area, T=20 [3, 11]: 0
- Raw data: analyte peak area, T=20 [3, 12]: 0
- Raw data: analyte peak area, T=30 [3, 11]: 0
- Raw data: analyte peak area, T=30 [3, 12]: 0
- Raw data: analyte peak area, T=60 [3, 11]: 0
- Raw data: analyte peak area, T=60 [3, 12]: 0
- mouse liver microsomes T-half ([3]; mouse liver microsomes, NADPH, 1 μM): <3.0 min
- microsomal CLint at 1 μM (in vitro [4]; pH 7.4): > 578 µL/min/mg
- remaining at 5 min, 1 μM (in vitro [4]; [13]): 28.2%
- remaining at 5 min, 1 μM (in vitro [4]; [14]): 28.1%
- microsomal CLint at 1 μM (in vitro [4]; pH 7.4, mouse liver microsomes CLint, app, mouse liver microsomes, NADPH, 1 μM): > 578 µL/min/mg
- remaining at 10 min, 1 µM (in vitro [4]; [13]): 0%
- remaining at 10 min, 1 µM (in vitro [4]; [14]): 0%
- remaining at 20 min, 1 µM (in vitro [4]; [13]): 0%
- remaining at 20 min, 1 µM (in vitro [4]; [14]): 0%
- remaining at 0.5 h, 1 µM (in vitro [4]; [13]): 0%
- remaining at 0.5 h, 1 µM (in vitro [4]; [14]): 0%
- remaining at 1 h, 1 µM (in vitro [4]; [13]): 0%
- remaining at 1 h, 1 µM (in vitro [4]; [14]): 0%
- Raw data: analyte peak area, T=60 NCF ([5]; replicate 1 (left block)): 1230
- Raw data: analyte peak area, T=60 NCF ([5]; replicate 2 (right block)): 835
- remaining at 1 h, 1 µM [5, 13]: 26.3%
- remaining at 1 h, 1 µM [5, 14]: 19.3%
